IC50 data for 54 molecules are collected here from patent US10919852B2, “Immunomodulator compounds” (CHEMOCENTRYX, INC., priority 2017, dated 2021).

For this assay, the target named is human PD-L1 / Human PD-1 (Homo sapiens (Human), UniProt Q9NZQ7). In words: Enzyme-Linked Immunosorbent Assay (ELISA), PD-1/PD-L1 binding. As to conditions: plate-coated human PD-L1, biotinylated human PD-1. Summed up:
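Compound dilutions (1:5 series) competed with 0.3 μg/mL biotin-labelled human PD-1 for PD-L1 immobilised at […], for 1 h at 37 °C. Read-out was A450 after streptavidin-HRP and a 20 min TMB reaction, stopped with 2 N H2SO4.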

In general, pIC50 refers to the IC50 on a negative log10 scale, so that one unit is a factor of ten. A low value points to a high IC50.

Each structure is given as a SMILES string. pIC50: −log10 of the molar value.

human PD-L1 / Human PD-1, sequence (Q9NZQ7 19-239): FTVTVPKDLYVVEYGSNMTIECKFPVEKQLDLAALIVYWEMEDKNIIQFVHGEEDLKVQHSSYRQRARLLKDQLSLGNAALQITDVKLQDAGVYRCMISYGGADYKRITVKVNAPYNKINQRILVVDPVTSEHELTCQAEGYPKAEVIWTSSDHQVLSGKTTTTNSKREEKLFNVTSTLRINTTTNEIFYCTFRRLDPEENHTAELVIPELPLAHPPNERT

For the molecule `Cc1c(OCCCN2CC[C@@H](O)C2)cccc1-c1cccc2c1CC[C@@H]2Oc1cc(OCc2cncc(C#N)c2)c(CN[C@H](C(=O)O)[C@@H](C)O)cc1Cl`, the negative logarithm of the IC50 (pIC50) was > 8.30.

`Cc1c(OCCCN2CCC(F)CC2)cccc1-c1cccc2c1CC[C@@H]2Oc1cc(OCc2cncc(C#N)c2)c(CN[C@H](C(=O)O)[C@@H](C)O)cc1Cl`: the negative-log IC50 (pIC50) was > 8.30.

For `Cc1c(OCCCN2CCC(CO)CC2)cccc1-c1cccc2c1CC[C@@H]2Oc1cc(OCc2cncc(C#N)c2)c(CN[C@H](C(=O)O)[C@@H](C)O)cc1Cl`, the pIC50 was > 8.30.

Turning to `Cc1c(OCCCN2CC(O)C2)cccc1-c1cccc2c1CC[C@@H]2Oc1cc(OCc2cncc(C#N)c2)c(CN[C@H](C(=O)O)[C@@H](C)O)cc1Cl`, the pIC50 is > 8.30.

Consider `C[C@@H](O)[C@H](NCc1cc(Cl)c(O[C@H]2CCc3c(-c4cccc(OCCCN5CCC(C)(F)CC5)c4Cl)cccc32)cc1OCc1cncc(C#N)c1)C(=O)NS(C)(=O)=O`, for which the negative-log IC50 (pIC50) is > 8.30.

Turning to `CCOc1cc(O[C@H]2CCc3c(-c4cccc(OCCCN5CCC(F)CC5)c4Cl)cccc32)c(Cl)cc1CN[C@@H]1CCOC[C@H]1O`, the pIC50 is 6.30 to 8.30.

As to `CCOc1cc(O[C@H]2CCc3c(-c4cccc(OCCCN5CCC(F)CC5)c4Cl)cccc32)c(Cl)cc1CN[C@H](C(=O)NS(C)(=O)=O)[C@@H](C)O`, the negative logarithm of the IC50 (pIC50) is 6.30 to 8.30.

In the case of `CC(=O)OC1CCN(CCCOc2cccc(-c3cccc4c3CC[C@@H]4Oc3cc(OCc4cncc(C#N)c4)c(CN[C@@H]4CCCC[C@@H]4O)cc3Cl)c2Cl)CC1`, the negative-log IC50 (pIC50) is > 8.30.

For `N#Cc1cncc(COc2cc(O[C@H]3CCc4c(-c5cccc(OCCCN6CCC(F)CC6)c5Cl)cccc43)c(Cl)cc2CN[C@H]2CCC[C@H]2O)c1`, the negative logarithm of the IC50 (pIC50) was > 8.30.

Regarding `N#Cc1cncc(COc2cc(O[C@H]3CCc4c(-c5cccc(OCCCN6CCC(F)CC6)c5Cl)cccc43)c(Cl)cc2CN[C@H]2CCC[C@@H]2O)c1`, the negative-log IC50 (pIC50) was > 8.30.

For the molecule `N#Cc1cncc(COc2cc(O[C@H]3CCc4c(-c5cccc(OCCCN6CCC(F)CC6)c5Cl)cccc43)c(Cl)cc2CNCC2CNC(=O)C2)c1` (stereo partly drawn), the negative-log IC50 (pIC50) is > 8.30.

For the molecule `Cc1c(OCCCN2CCC(F)CC2)cccc1-c1cccc2c1CC[C@@H]2Oc1cc(OCc2cc(C#N)cc(C#N)c2)c(CNC[C@@H]2CCC(=O)N2)cc1Cl`, the pIC50 is > 8.30.

Consider `CC1(F)CCN(Cc2cc(Cl)c(O[C@H]3CCc4c(-c5cccc(OCCCN6CCC(F)CC6)c5Cl)cccc43)cc2OCc2cncc(C#N)c2)CC1`, for which the negative logarithm of the IC50 (pIC50) is 6.30 to 8.30.

For `C[C@@](CO)(NCc1cc(Cl)c(O[C@H]2CCc3c(-c4cccc(OCCCN5CCC5)c4Cl)cccc32)cc1OCc1cncc(C#N)c1)C(=O)O`, the negative-log IC50 (pIC50) is > 8.30.

The molecule `N#Cc1cncc(-c2cc(O[C@H]3CCc4c(-c5cccc(OCCCN6CCC(F)CC6)c5Cl)cccc43)c(Cl)cc2CNC[C@H]2CCC(=O)N2)c1` showed a negative logarithm of the IC50 (pIC50) of 4.70 to 6.30.

In turn, `N#Cc1cncc(-c2cc(O[C@H]3CCc4c(-c5cccc(OCCCN6CCC(F)CC6)c5Cl)cccc43)c(Cl)cc2CN[C@@H]2CCCC[C@@H]2O)c1` showed a pIC50 of 6.30 to 8.30.

For `C[C@@H](O)[C@H](NCc1cc(Cl)c(O[C@H]2CCc3c(-c4cccc(OCCCN5CCC(F)CC5)c4Cl)cccc32)cc1OCc1cncc(C#N)c1)C(=O)NS(C)(=O)=O`, the negative-log IC50 (pIC50) is > 8.30.

As to `N#Cc1cncc(COc2cc(O[C@H]3CCc4c(-c5cccc(OCCCN6CCC(F)CC6)c5Cl)cccc43)c(Cl)cc2CN[C@@H]2CCOC[C@H]2O)c1`, the negative-log IC50 (pIC50) was > 8.30.

Take `N#Cc1cncc(COc2cc(O[C@H]3CCc4c(-c5cccc(OCCCN6CCC(F)CC6)c5Cl)cccc43)c(Cl)cc2CN[C@@H]2CCOC[C@@H]2O)c1`: the negative-log IC50 (pIC50) is > 8.30.

For `N#Cc1cncc(COc2cc(O[C@H]3CCc4c(-c5cccc(OCCCN6CCC(F)CC6)c5Cl)cccc43)c(Cl)cc2CN[C@H]2CCOC[C@H]2O)c1`, the pIC50 is > 8.30.

For the molecule `N#Cc1cncc(COc2cc(O[C@H]3CCc4c(-c5cccc(OCCCN6CC7(CC(O)C7)C6)c5Cl)cccc43)c(Cl)cc2CN[C@@H]2CCC[C@@H]2O)c1`, the negative-log IC50 (pIC50) was > 8.30.

As for `N#Cc1cncc(COc2cc(O[C@H]3CCc4c(-c5cccc(OCCCN6CC7(CC(O)C7)C6)c5Cl)cccc43)c(Cl)cc2CN[C@@H]2CCC[C@H]2O)c1`, the pIC50 was > 8.30.

As to `N#Cc1cncc(COc2cc(O[C@H]3CCc4c(-c5cccc(OCCCN6CC7(CC(O)C7)C6)c5Cl)cccc43)c(Cl)cc2CN[C@H]2CCC[C@H]2O)c1`, the pIC50 is > 8.30.

For the molecule `N#Cc1cncc(COc2cc(O[C@H]3CCc4c(-c5cccc(OCCCN6CCC(F)CC6)c5Cl)cccc43)c(Cl)cc2CN2CCNC(=O)C2)c1`, the pIC50 was 6.30 to 8.30.

As to `N#Cc1cncc(COc2cc(O[C@H]3CCc4c(-c5cccc(OCCCN6CCC(F)CC6)c5Cl)cccc43)c(Cl)cc2CN[C@@H]2CCOC[C@@H]2F)c1`, the pIC50 was 6.30 to 8.30.

In the case of `N#Cc1cncc(COc2cc(O[C@H]3CCc4c(-c5cccc(OCCCN6CCC(F)CC6)c5Cl)cccc43)c(Cl)cc2CN[C@H]2CCC(=O)NC2)c1`, the pIC50 is > 8.30.

Consider `N#Cc1cncc(COc2cc(O[C@H]3CCc4c(-c5cccc(OCCCN6CC7(CC(O)C7)C6)c5Cl)cccc43)c(Cl)cc2CN[C@H]2CCC[C@@H]2O)c1`, for which the pIC50 was > 8.30.

`N#Cc1cncc(COc2cc(O[C@H]3CCc4c(-c5cccc(OCCCN6CC7(CC(O)C7)C6)c5Cl)cccc43)c(Cl)cc2CN2CCCC3(C2)NC(=O)NC3=O)c1` (stereo partly drawn): the negative-log IC50 (pIC50) is 6.30 to 8.30.

Regarding `N#Cc1cncc(COc2cc(O[C@H]3CCc4c(-c5cccc(OCCCN6CC7(CC(O)C7)C6)c5Cl)cccc43)c(Cl)cc2CN2CCC3(C2)NC(=O)NC3=O)c1` (stereo partly drawn), the negative-log IC50 (pIC50) is 6.30 to 8.30.

`N#Cc1cncc(COc2cc(O[C@H]3CCc4c(-c5cccc(OCCCN6CCC(F)CC6)c5Cl)cccc43)c(Cl)cc2CN[C@@H]2CCC(=O)NC2)c1`: the pIC50 is > 8.30.

`N#Cc1cc(C#N)cc(COc2cc(O[C@H]3CCc4c(-c5cccc(OCCCN6CCC(F)CC6)c5Cl)cccc43)c(Cl)cc2CNC[C@H]2CCC(=O)N2)c1`: the negative-log IC50 (pIC50) was > 8.30.

Regarding `N#Cc1cncc(COc2cc(O[C@H]3CCc4c(-c5cccc(OCCC(N)=O)c5Cl)cccc43)c(Cl)cc2CN[C@@H]2CCCC[C@@H]2O)c1`, the pIC50 is 6.30 to 8.30.

Consider `N#Cc1cncc(COc2cc(O[C@H]3CCc4c(-c5cccc(OCCC(N)=O)c5Cl)cccc43)c(Cl)cc2CNC[C@H]2CCC(=O)N2)c1`, for which the negative-log IC50 (pIC50) is 6.30 to 8.30.

For the molecule `N#Cc1cncc(COc2cc(O[C@H]3CCc4c(-c5cccc(OCCCN6CC7(CC(F)C7)C6)c5Cl)cccc43)c(Cl)cc2CN[C@@H]2CCC[C@@H]2O)c1`, the negative-log IC50 (pIC50) is > 8.30.

For `N#Cc1cncc(COc2cc(O[C@H]3CCc4c(-c5cccc(OCCCN6CC7(CC(F)C7)C6)c5Cl)cccc43)c(Cl)cc2CN[C@@H]2CCC[C@H]2O)c1`, the negative-log IC50 (pIC50) was > 8.30.

`N#Cc1cncc(COc2cc(O[C@H]3CCc4c(-c5cccc(OCCCN6CC7(CC(F)C7)C6)c5Cl)cccc43)c(Cl)cc2CN2CCC3(C2)NC(=O)NC3=O)c1` (stereo partly drawn): the pIC50 was 6.30 to 8.30.

On to `Cc1c(OCCCN2CCCCC2)cccc1-c1cccc2c1CC[C@@H]2Oc1cc(OCc2cc(C#N)cc(C#N)c2)c(CNC[C@H]2CCC(=O)N2)cc1Cl`, for which the negative logarithm of the IC50 (pIC50) was > 8.30.

Take `Cc1c(OCCCN2CCCCC2)cccc1-c1cccc2c1CC[C@@H]2Oc1cc(OCc2cc(C#N)cc(C#N)c2)c(CN[C@@H]2CCCC[C@@H]2O)cc1Cl`: the negative-log IC50 (pIC50) was > 8.30.

In the case of `Cc1c(OCCCN2CCC(F)CC2)cccc1-c1cccc2c1CC[C@@H]2Oc1cc(OCc2cc(C#N)cc(C#N)c2)c(CN[C@@H]2CCC[C@@H]2O)cc1Cl`, the pIC50 was > 8.30.

As to `Cc1c(OCCCN2CCC(F)CC2)cccc1-c1cccc2c1CC[C@@H]2Oc1cc(OCc2cc(C#N)cc(C#N)c2)c(CN2CCC3(C2)NC(=O)NC3=O)cc1Cl` (stereo partly drawn), the negative-log IC50 (pIC50) is 6.30 to 8.30.

Turning to `Cc1c(OCCCN2CCC(F)CC2)cccc1-c1cccc2c1CC[C@@H]2Oc1cc(OCc2cc(C#N)cc(C#N)c2)c(CN[C@@H]2CCOC[C@H]2O)cc1Cl`, the pIC50 is > 8.30.

Regarding `Cc1c(OCCCN2CCC(F)CC2)cccc1-c1cccc2c1CC[C@@H]2Oc1cc(OCc2cc(C#N)cc(C#N)c2)c(CN[C@@H]2CCC[C@H]2O)cc1Cl`, the negative-log IC50 (pIC50) was > 8.30.

As for `Cc1c(OCCCN2CCC(F)CC2)cccc1-c1cccc2c1CC[C@@H]2Oc1cc(OCc2cc(C#N)cc(C#N)c2)c(CN[C@H]2CCC[C@@H]2O)cc1Cl`, the negative-log IC50 (pIC50) was > 8.30.

On to `N#Cc1cncc(COc2cc(O[C@H]3CCc4c(-c5cccc(OCCCN6CCC(F)CC6)c5Cl)cccc43)c(Cl)cc2CN2CC3(C2)NC(=O)NC3=O)c1`, for which the pIC50 is > 8.30.

Consider `N#Cc1cncc(COc2cc(O[C@H]3CCc4c(-c5cccc(OCCCN6CCC(F)CC6)c5Cl)cccc43)c(Cl)cc2CN[C@H]2CC[C@@H]2O)c1`, for which the negative-log IC50 (pIC50) was > 8.30.

Turning to `Cc1c(OCCCN2CCC(F)CC2)cccc1-c1cccc2c1CC[C@@H]2Oc1cc(OCc2cc(C#N)cc(C#N)c2)c(CN[C@H]2CCC[C@H]2O)cc1Cl`, the pIC50 is > 8.30.

For `Cc1c(OCCCN2CCC(F)CC2)cccc1-c1cccc2c1CC[C@@H]2Oc1cc(OCc2cc(C#N)cc(C#N)c2)c(CN[C@H]2CCOC[C@H]2O)cc1Cl`, the negative logarithm of the IC50 (pIC50) was > 8.30.

`Cc1c(OCCCN2CCC(F)CC2)cccc1-c1cccc2c1CC[C@@H]2Oc1cc(OCc2cc(C#N)cc(C#N)c2)c(CN[C@H]2CCC(=O)NC2)cc1Cl` showed a pIC50 of 6.30 to 8.30.

For `Cc1c(OCCCN2CCC(F)CC2)cccc1-c1cccc2c1CC[C@@H]2Oc1cc(OCc2cc(C#N)cc(C#N)c2)c(CN2CC3(C2)NC(=O)NC3=O)cc1Cl`, the pIC50 is 6.30 to 8.30.

Turning to `Cc1c(OCCCN2CCC(C)(F)CC2)cccc1-c1cccc2c1CC[C@@H]2Oc1cc(OCc2cc(C#N)cc(C#N)c2)c(CNC[C@H]2CCC(=O)N2)cc1Cl`, the negative logarithm of the IC50 (pIC50) was 6.30 to 8.30.

`Cc1c(OCCCN2CCC(C)(F)CC2)cccc1-c1cccc2c1CC[C@@H]2Oc1cc(OCc2cc(C#N)cc(C#N)c2)c(CNC[C@@H]2CCC(=O)N2)cc1Cl` showed a pIC50 of 6.30 to 8.30.

For the molecule `N#Cc1cncc(COc2cc(O[C@H]3CCc4c(-c5cccc(OCCCN6CC7(CC(F)C7)C6)c5Cl)cccc43)c(Cl)cc2CN[C@H]2CCC[C@H]2O)c1`, the negative-log IC50 (pIC50) was > 8.30.

`N#Cc1cncc(COc2cc(O[C@H]3CCc4c(-c5cccc(OCCCN6CCC6)c5Cl)cccc43)c(Cl)cc2CN[C@@H]2CCCC[C@@H]2O)c1`: the pIC50 is > 8.30.

In the case of `N#Cc1cncc(COc2cc(O[C@H]3CCc4c(-c5cccc(OCCCN6CC7(CC(F)C7)C6)c5Cl)cccc43)c(Cl)cc2CN[C@H]2CCC[C@@H]2O)c1`, the negative-log IC50 (pIC50) is > 8.30.
